Values of other authors in US12138350B2, “Method of producing a extruded composition” (Cubic Pharmaceuticals Ltd., priority 2015, dated 2024).

Details: Ramukutty and Ramachandran 2014

Temperature up to which stable: about 152 °C
Compound: CC(C)Cc1ccc(C(C)C(=O)O)cc1 (racemic) [Ibuprofen, (RS)-2-(4-(2-methylpropyl)phenyl)propanoic acid]
